# Test results published in article PMC11091967, “Silicon-Rhodamine Functionalized Evocalcet Probes Potently and Selectively Label Calcium Sensing Receptors In Vitro, In Vivo, and Ex Vivo” (ACS Pharmacology & Translational Science, 2024).
# Legend:
# [1] = test system: CCL39 cells; assay: Calcein AM viability assay, CCL39 cells, 72 h; assay type: cell-based, hamster
# Method: (§1) The effects of EvoSiR probes and evocalcet on the viability of CCL39 and HCAR cells were evaluated using the Calcein AM assay as described by the manufacturer’s protocol (AAT Bioquest, 22002) with a working concentration of 10 μM. For the assay, cells were incubated in various concentrations of the compounds for 72 h. For positive controls, cells were incubated in culture media containing maximum 10% DMSO in a two-step dilution series for 72 h. Upon incubation in the Calcein AM solution for 1 h at 37 °C, the fluorescence readouts were retrieved using the Tecan GENios pro microplate reader (λex = 485 nm, λem = 535 nm, gain = 25 AU)
# [2] = test system: hair cells of the neuromasts within the lateral line organ; assay: In vivo labeling of neuromasts in zebrafish larvae; parameters: species or system zebrafish (Danio rerio); conditions: 4–6 dpf larvae; for fold increase in fluorescence intensity within the neuromasts: co-labeling with DiAsp; for normalized fluorescence of the neuromasts to the background fluorescence, mean and standard deviation: neuromasts identified with DiAsp
# Method: For the neuromast labeling experiments, wild-type 4–6 days post fertilization (dpf) zebrafish larvae were incubated in 200 μL of E3 medium containing different doses of the SiR probes (500–5000 nM), 2.5 μM 4-(4-diethylaminostyryl)-1-methyl-pyridinium-iodid (DiAsp, Sigma, D3418), which specifically labels hair cells in the lateral line in 0.5% DMSO for 30 min (35). Next, washing and anesthesia were achieved by placing the larvae in a 35 mm imaging dish (MolBiTec, Imaging dish 1.5) which contained 500 μL of E3 medium with 168 mg/L MS-222 (Tricaine Mehanesulfonate, Sigma) for 10 min. After removing the solution, fish were side-embedded in the imaging dish using 500 μL of 0.75% low-melting temperature agarose (Sigma, A4018). Wide-field imaging was done using the Zeiss Axio Observer fluorescence microscope (LD A-Plan 10× objective, NA = 0.25), and confocal imaging was done using a Zeiss LSM 800 confocal fluorescence microscope (LD LCI Plan-Apochromat 25× objective, NA = 0.8).
# [3] = test system: HCAR cells; assay: Calcein AM viability assay, HCAR cells, 72 h; assay type: cell-based, hamster; conditions: for IC50: Cricetulus griseus
# Method: as §1
# [4] = biological target: T1, human CaSR (Homo sapiens, UniProt P41180); assay: In vitro labeling of CaSR expressing (HCAR) and control (CCL39) cells, fluorescence microscopy; assay type: cell-based; conditions: for fold increase in skewness of pixel intensity distribution, CaSR+ (HCAR) vs CaSR- (CCL39) cells: 500 nM probe; for fold mean fluorescence difference between CaSR+ and CaSR- cells: 72 h incubation
# T1 construct: host or cells: CCL39 hamster lung fibroblasts stably transfected (HCAR), Geneticin selection
# T1 sequence (P41180 20-1078): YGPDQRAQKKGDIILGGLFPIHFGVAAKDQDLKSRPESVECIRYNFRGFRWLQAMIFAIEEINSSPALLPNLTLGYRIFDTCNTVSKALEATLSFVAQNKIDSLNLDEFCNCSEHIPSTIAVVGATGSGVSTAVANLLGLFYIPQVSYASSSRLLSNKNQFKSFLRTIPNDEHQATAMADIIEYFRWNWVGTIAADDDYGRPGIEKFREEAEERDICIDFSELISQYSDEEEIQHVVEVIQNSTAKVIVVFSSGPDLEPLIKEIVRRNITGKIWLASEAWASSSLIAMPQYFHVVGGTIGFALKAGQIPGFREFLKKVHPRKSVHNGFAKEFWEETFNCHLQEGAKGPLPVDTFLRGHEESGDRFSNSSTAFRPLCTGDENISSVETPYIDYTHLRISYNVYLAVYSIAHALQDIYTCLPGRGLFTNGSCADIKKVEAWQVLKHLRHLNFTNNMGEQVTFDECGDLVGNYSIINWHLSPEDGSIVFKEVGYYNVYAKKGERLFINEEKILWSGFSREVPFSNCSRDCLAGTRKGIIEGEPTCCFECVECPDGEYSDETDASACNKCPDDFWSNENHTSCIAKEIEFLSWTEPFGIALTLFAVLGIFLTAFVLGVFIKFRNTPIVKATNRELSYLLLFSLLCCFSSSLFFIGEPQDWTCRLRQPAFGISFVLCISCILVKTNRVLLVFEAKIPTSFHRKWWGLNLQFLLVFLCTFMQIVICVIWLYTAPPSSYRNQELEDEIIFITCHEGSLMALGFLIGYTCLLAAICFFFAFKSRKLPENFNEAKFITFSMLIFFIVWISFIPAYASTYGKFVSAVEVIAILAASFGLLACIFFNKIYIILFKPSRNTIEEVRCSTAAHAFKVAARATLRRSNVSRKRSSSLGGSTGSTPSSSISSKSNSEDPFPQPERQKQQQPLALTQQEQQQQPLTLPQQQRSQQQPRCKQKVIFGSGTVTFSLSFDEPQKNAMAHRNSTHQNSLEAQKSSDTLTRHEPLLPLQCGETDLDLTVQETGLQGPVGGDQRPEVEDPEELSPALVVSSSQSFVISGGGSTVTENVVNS
# Method: HCAR (CaSR+) and CCL39 (CaSR−) cells were kindly obtained from Novartis AG (Basel, Switzerland) and validated in house. The cells were seeded into μ-slide 18 well plates (ibidi, 81816) at a density of 5000 cells per well and were incubated for 24 h under standard culturing conditions. As our preliminary data indicated considerable nonspecific labeling of dying cells and cellular debris, a viability staining was introduced to ensure probe specificity.[29] Thus, after washing twice with HBSS, cells were incubated in 10 μM Calcein AM solution containing 0.02% Pluronic F-127 and 0.1% DMSO for 45 min at 37 °C. The solution was then removed and washed twice in HBSS before the addition of the HBSS solution containing the SiR probes. All probe solutions were protected from light exposure and contained 0.5% DMSO and various concentrations of BSA depending on the experiment. Incubation with the fluorescent probes was 20 min long, after which a single washing step was introduced with HBSS before imaging. Images of the cells (Calcein: FITC channel, SiR: Cy5 channel) were acquired with a Nikon Eclipse TI2 inverted wide-field fluorescence microscope using a 60× magnification oil immersion objective (Nikon CFI Plan Fluor, 60×, NA = 0.85). For each well, a minimum of 3 images were acquired. For each image, cells were segmented to generate labels on the FITC channel postacquisition using the deep neural network-based Cellpose package in Python 3.9 (model_type: cyto2, diameter: 200, flow_threshold: 0.4).[30] To normalize pixel intensity values across images, for each image, a background value was calculated by taking the average pixel intensity value of the pixels in which no cellular label was present and were negative for the EvoSiR label (triangle thresholding used). For each cell, the skewness of the value distribution and the mean of the Cy5 pixel intensities were calculated. The procedure for evaluating the long-term labeling (72 h) of EvoSiR probes on CCL39 and HCAR cells was similar, with the following modifications: images were retrieved using 10× magnification air objectives (Nikon CFI Plan Fluor 10×, NA = 0.3), in the neural network model, the diameter parameter was set to 30, and only the mean Cy5 pixel intensities per cell object were retrieved.
reduction in skewness of pixel intensity distribution of EvoSiR4 labeling by competition ([4]; CaSR+ cells preincubated with 0–500 nM evocalcet in 0.1% BSA) [%],Compound,IC50 [1] [µM],effect on viability at 50 μM [1],fold increase in fluorescence intensity within the neuromasts [2] [fold],"normalized fluorescence of the neuromasts to the background fluorescence, mean and standard deviation [2]",effect on viability at 50 μM [3],IC50 [3] [µM],"fold increase in skewness of pixel intensity distribution, CaSR+ (HCAR) vs CaSR- (CCL39) cells ([4]; 0.1% BSA) [fold]",concentration above which skewness significantly increased for HCAR compared to CCL39 ([4]; 1% BSA),fold mean fluorescence difference between CaSR+ and CaSR- cells ([4]; 50 nM) [fold],fold mean fluorescence difference between CaSR+ and CaSR- cells ([4]; 200 nM) [fold],"concentration at which skewness values saturate ([4]; HCAR (CaSR+) cells, 0.1% BSA) [nM]",concentration above which skewness significantly increased for HCAR compared to CCL39 ([4]; no BSA and 0.1% BSA),concentration below which no effect on viability [1] [µM],concentration below which no effect on viability [3] [µM]
–,Cc1cc(C(=O)NCCCCNC(=O)Cc2ccc(N3CC[C@H](N[C@H](C)c4cccc5ccccc45)C3)cc2)ccc1C1=C2C=CC(=[N+](C)C)C=C2[Si](C)(C)c2cc(N(C)C)ccc21 [EvoSiR4],36 ± 3.8,significantly reduced,5.7,5.71 ± 4.4,significantly reduced,27.3 ± 2.3,3.7,above 2500 nM,1.3,2.5,500,above 500 nM,–,–
55,C[C@@H](N[C@H]1CCN(c2ccc(CC(=O)O)cc2)C1)c1cccc2ccccc12 [evocalcet],–,–,–,–,–,–,–,–,–,–,–,–,< 50,< 50
–,Cc1cc(C(=O)NCCCCCCNC(=O)Cc2ccc(N3CC[C@H](N[C@H](C)c4cccc5ccccc45)C3)cc2)ccc1C1=C2C=CC(=[N+](C)C)C=C2[Si](C)(C)c2cc(N(C)C)ccc21 [EvoSiR6],36 ± 6,significantly reduced,5.6,5.6 ± 3.1,significantly reduced,26 ± 2.3,2.3,–,–,–,–,–,–,–
